Where two headings read alike, the source gives them in different places.
Key:
Assay in all cases: KINOMEscan competitive binding
[1] = biological target: T1, TGFBR1 (Homo sapiens, UniProt P36897); settings: n=1, read-out: Percent inhibition, TGFBR1
T1 construct: purchased DiscoverX (KINOMEscan)
T1 sequence (P36897 34-503): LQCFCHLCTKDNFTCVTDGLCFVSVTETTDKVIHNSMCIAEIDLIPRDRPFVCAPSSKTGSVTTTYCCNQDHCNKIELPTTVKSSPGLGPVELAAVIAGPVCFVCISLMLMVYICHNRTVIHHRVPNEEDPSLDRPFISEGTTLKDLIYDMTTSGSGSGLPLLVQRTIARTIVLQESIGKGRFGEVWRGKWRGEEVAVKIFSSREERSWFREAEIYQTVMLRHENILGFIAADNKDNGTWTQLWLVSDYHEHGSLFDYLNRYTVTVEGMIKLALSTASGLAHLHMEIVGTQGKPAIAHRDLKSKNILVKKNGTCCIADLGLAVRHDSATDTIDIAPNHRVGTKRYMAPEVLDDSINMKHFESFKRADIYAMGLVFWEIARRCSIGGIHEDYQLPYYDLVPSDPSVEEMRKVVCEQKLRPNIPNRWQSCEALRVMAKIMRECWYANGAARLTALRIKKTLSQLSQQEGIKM

[2] = biological target: T2, PRKD2 (Homo sapiens, UniProt Q9BZL6); settings: n=1, read-out: Percent inhibition, PRKD2
T2 construct: purchased DiscoverX (KINOMEscan)
T2 sequence (Q9BZL6 1-878): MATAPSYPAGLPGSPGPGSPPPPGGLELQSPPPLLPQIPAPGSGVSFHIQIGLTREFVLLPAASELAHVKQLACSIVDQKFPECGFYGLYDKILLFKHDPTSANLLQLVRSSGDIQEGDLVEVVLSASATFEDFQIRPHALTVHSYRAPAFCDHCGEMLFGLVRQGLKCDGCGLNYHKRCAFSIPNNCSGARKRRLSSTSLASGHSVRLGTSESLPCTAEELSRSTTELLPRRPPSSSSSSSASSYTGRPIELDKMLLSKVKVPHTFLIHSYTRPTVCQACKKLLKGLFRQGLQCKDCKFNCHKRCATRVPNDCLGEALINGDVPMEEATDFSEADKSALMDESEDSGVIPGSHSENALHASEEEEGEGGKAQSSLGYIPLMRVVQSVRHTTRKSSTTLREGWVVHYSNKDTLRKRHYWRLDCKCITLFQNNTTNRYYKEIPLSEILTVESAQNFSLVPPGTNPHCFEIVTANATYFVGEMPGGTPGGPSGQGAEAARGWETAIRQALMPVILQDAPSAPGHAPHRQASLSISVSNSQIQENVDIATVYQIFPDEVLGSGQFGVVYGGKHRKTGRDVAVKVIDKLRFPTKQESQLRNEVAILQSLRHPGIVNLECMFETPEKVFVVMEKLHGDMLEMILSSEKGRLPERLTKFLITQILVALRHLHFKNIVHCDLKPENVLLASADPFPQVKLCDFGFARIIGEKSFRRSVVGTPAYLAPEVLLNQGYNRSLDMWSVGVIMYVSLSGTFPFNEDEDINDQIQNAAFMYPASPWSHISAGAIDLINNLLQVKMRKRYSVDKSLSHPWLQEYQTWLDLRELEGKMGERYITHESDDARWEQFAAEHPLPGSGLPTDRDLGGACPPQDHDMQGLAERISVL

[3] = biological target: T3, PAK3 (Homo sapiens, UniProt O75914); settings: n=1, read-out: Percent inhibition, PAK3
T3 construct: purchased DiscoverX (KINOMEscan)

[4] = biological target: T4, AAK1 (Homo sapiens, UniProt Q2M2I8)
T4 construct: purchased DiscoverX (KINOMEscan)
Excerpt: (§1) The kinases were expressed as fusions to T7 bacteriophage. This is a sensitive, competitive binding assay where test compounds were used to displace immobilized ATP-site binding probe ligands from kinases of interest. The amount of kinase that remained bound to the immobilized probe ligands on the solid support was quantified. Percentage inhibition data were was plotted on kinome trees using the web-based tool KinMap (http://www.kinhub.org/kinmap) ([60]).

[5] = biological target: T5, EGFR (Homo sapiens, UniProt P00533)
T5 construct: purchased DiscoverX (KINOMEscan)
Excerpt: as §1

[6] = biological target: T6, LYN (Homo sapiens, UniProt P07948)
T6 construct: purchased DiscoverX (KINOMEscan)
Excerpt: as §1

[7] = biological target: T7, CSNK1D (Homo sapiens, UniProt P48730)
T7 construct: purchased DiscoverX (KINOMEscan)
Excerpt: as §1

[8] = biological target: T8, YES (Homo sapiens, UniProt P07947); settings: n=1, read-out: Percent inhibition, YES
T8 construct: purchased DiscoverX (KINOMEscan)

[9] = biological target: T9, PAK4 (Homo sapiens, UniProt O96013); settings: n=1, read-out: Percent inhibition, PAK4
T9 construct: purchased DiscoverX (KINOMEscan)

[10] = biological target: T10, TIE2 (Homo sapiens, UniProt Q02763); settings: n=1, read-out: Percent inhibition, TIE2
T10 construct: purchased DiscoverX (KINOMEscan)

[11] = biological target: T11, RET (Homo sapiens, UniProt P07949); settings: n=1, read-out: Percent inhibition, RET
T11 construct: purchased DiscoverX (KINOMEscan)

[12] = biological target: T12, PAK6 (Homo sapiens, UniProt Q9NQU5); settings: n=1, read-out: Percent inhibition, PAK6
T12 construct: purchased DiscoverX (KINOMEscan)

[13] = 10 µM, n=1, kinase AAK1, read-out: Percent inhibition AAK1
[14] = 10 µM, n=1, kinase EGFR, read-out: Percent inhibition EGFR
[15] = 10 µM, n=1, kinase LYN, read-out: Percent inhibition LYN
[16] = 10 µM, n=1, kinase CSNK1D, read-out: Percent inhibition CSNK1D

T7 sequence (P48730 whole entry): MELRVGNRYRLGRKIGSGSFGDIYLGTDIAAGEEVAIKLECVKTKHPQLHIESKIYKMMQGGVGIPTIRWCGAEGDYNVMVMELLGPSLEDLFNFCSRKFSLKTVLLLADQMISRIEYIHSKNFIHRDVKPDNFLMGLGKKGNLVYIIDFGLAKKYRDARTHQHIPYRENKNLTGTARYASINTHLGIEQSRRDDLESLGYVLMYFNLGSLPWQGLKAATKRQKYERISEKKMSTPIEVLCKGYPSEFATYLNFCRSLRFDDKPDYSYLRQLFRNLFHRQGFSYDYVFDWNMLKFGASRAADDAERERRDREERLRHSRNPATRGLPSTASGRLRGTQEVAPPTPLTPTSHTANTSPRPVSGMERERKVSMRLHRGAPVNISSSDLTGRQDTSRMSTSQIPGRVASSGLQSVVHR
T4 sequence (Q2M2I8 whole entry): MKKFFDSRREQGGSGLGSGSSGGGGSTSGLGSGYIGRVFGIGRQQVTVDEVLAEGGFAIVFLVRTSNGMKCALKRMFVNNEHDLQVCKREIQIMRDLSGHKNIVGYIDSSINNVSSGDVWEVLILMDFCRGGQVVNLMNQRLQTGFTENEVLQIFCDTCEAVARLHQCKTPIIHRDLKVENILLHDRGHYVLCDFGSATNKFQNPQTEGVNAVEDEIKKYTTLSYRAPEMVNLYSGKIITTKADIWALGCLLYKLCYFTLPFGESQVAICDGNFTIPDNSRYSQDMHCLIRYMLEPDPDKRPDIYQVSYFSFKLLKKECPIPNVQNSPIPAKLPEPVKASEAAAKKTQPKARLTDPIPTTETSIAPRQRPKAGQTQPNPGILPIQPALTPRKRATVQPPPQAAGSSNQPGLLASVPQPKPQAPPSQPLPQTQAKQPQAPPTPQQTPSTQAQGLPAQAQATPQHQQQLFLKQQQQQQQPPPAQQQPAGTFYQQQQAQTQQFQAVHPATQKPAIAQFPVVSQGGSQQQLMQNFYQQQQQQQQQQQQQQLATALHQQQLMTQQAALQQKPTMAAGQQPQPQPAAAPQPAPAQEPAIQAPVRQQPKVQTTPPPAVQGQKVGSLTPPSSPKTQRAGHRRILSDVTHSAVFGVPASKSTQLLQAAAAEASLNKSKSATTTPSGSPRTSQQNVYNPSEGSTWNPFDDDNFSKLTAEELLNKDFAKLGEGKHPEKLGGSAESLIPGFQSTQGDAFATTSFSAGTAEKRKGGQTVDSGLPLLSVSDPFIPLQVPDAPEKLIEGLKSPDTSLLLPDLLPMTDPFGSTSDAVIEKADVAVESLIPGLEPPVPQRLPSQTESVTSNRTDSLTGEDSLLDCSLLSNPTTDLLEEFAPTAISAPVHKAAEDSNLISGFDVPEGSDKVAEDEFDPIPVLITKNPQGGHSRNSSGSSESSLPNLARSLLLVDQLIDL
T10 sequence (Q02763 23-1124): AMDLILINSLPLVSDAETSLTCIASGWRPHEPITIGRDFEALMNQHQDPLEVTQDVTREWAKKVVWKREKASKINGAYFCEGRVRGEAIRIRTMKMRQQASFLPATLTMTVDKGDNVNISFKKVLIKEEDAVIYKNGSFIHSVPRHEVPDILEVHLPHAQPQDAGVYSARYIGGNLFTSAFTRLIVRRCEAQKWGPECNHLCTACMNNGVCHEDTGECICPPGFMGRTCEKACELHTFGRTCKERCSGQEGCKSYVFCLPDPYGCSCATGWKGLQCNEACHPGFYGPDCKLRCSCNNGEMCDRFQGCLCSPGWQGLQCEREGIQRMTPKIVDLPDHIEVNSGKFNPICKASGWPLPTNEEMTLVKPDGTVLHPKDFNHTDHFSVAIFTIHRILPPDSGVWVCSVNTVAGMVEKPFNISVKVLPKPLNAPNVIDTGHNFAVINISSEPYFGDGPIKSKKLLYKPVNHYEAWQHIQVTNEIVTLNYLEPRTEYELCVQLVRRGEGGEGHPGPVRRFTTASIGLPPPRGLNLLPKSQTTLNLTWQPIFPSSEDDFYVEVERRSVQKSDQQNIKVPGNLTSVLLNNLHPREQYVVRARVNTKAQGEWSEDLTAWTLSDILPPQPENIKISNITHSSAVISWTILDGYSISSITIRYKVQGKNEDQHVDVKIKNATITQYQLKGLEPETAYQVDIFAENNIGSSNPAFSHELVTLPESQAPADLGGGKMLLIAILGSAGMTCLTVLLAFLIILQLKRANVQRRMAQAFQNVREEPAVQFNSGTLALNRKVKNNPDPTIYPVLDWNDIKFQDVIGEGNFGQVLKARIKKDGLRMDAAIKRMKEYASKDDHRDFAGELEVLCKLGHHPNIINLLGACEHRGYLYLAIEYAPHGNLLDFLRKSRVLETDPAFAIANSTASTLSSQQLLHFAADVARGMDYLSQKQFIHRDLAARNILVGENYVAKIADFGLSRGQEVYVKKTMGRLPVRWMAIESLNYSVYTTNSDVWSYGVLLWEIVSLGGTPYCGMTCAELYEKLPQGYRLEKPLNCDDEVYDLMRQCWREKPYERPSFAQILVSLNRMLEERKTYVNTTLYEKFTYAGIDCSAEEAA
T5 sequence (P00533 25-1210): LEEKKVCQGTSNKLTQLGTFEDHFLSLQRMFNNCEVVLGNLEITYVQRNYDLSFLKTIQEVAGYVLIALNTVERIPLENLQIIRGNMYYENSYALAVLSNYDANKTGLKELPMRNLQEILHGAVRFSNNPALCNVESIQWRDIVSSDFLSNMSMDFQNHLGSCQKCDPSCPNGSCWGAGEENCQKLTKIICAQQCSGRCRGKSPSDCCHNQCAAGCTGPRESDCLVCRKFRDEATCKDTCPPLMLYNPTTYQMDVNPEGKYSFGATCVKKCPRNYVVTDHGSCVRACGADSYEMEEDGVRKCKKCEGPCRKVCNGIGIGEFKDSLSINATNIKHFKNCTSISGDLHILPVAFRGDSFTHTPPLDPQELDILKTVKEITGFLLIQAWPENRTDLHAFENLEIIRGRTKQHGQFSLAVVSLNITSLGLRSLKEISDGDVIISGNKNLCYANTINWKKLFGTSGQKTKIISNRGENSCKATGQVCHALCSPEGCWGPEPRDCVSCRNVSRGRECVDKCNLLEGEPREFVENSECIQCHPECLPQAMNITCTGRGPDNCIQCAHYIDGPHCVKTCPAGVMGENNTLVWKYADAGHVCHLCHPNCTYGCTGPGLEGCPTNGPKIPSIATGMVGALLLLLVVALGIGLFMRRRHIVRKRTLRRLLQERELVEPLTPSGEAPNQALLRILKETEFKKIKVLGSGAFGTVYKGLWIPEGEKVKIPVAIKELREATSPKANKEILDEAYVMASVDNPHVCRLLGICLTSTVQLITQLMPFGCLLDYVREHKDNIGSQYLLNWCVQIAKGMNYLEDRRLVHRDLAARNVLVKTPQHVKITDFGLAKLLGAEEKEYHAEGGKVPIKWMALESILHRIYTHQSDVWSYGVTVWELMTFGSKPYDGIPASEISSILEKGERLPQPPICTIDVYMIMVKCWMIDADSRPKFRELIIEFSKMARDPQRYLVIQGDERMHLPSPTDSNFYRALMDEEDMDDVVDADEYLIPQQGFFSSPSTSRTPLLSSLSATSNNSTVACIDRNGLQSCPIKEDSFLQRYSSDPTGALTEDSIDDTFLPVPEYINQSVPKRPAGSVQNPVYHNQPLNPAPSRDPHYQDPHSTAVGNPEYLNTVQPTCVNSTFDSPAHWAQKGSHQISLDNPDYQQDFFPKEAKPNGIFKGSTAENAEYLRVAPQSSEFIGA
T8 sequence (P07947 whole entry): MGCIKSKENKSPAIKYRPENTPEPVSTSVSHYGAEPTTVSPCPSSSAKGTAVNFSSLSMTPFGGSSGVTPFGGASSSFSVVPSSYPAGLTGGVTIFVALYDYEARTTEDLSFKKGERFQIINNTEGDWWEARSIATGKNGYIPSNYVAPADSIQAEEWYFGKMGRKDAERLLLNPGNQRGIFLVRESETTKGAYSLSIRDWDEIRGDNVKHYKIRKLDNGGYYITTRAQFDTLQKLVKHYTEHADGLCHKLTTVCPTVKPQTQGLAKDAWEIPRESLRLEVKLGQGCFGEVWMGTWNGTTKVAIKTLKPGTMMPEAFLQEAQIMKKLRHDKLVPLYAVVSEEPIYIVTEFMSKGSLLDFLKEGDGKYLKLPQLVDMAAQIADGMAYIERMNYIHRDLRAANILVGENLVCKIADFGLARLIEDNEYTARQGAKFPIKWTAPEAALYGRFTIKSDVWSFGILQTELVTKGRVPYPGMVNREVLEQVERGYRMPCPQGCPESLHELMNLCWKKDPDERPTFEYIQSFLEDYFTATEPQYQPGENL
T9 sequence (O96013 whole entry): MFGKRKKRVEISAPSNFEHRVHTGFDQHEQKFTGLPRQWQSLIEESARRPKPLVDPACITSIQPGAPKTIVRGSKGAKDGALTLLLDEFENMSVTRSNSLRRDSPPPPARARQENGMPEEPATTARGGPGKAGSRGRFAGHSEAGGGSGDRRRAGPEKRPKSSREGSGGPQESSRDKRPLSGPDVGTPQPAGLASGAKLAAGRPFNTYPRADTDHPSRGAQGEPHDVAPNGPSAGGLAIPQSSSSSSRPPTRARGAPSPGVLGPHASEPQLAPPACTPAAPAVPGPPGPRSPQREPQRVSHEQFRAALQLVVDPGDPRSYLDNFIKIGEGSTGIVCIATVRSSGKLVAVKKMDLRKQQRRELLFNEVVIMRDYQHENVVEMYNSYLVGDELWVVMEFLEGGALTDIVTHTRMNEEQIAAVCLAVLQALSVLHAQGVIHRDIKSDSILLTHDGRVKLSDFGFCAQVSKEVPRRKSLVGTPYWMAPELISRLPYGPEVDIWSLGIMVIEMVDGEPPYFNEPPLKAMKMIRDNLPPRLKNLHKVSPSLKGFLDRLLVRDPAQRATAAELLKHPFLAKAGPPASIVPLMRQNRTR

Row | Structure (SMILES) | inhibition at 10 µM [1] [%] | inhibition at 10 µM [2] [%] | inhibition at 10 µM [3] [%] | inhibition at 10 µM [4, 13] [%] | inhibition at 10 µM [5, 14] [%] | inhibition at 10 µM [6, 15] [%] | inhibition at 10 µM [7, 16] [%] | inhibition at 10 µM [8] [%] | inhibition at 10 µM [9] [%] | inhibition at 10 µM [10] [%] | inhibition at 10 µM [11] [%] | inhibition at 10 µM [12] [%] | inhibition at 10 µM ([5]; 10 μM, n = 1, read-out: percent inhibition EGFR) [%] | inhibition at 10 µM ([4]; 10 μM, n = 1, read-out: percent inhibition AAK1) [%] | inhibition at 10 µM ([6]; 10 μM, n = 1, read-out: percent inhibition LYN) [%] | inhibition at 10 µM ([7]; 10 μM, n = 1, read-out: percent inhibition CSNK1D) [%]
1 | CN1CCN(c2ccc(Nc3nccc(-c4cnn5ncccc45)n3)cc2C#N)CC1 [Compound 1] | 78.8 | 0 | 85.3 | 99.9 | 0 | 0 | 100 | 92.8 | 95.7 | 0 | 89.8 | 92.5 |  |  |  | 
2 | COc1ccc(Nc2nccc(-c3cnn4ncccc34)n2)cc1 [Compound 2] | 0 | 75.3 | 0 | 99.7 | 0 | 0 | 100 | 0 | 0 | 0 | 0 | 82 |  |  |  | 
3 | Cc1ccc(O)cc1Nc1ccnc(Nc2cccc(C(N)=O)c2)n1 [Compound 3] | 100 | 87.1 | 0 | 0 | 99 | 99.9 | 100 | 100 | 0 | 97.5 | 100 | 0 |  |  |  | 
4 | Cc1ccc(O)cc1N(C)c1ccnc(Nc2cccc(S(N)(=O)=O)c2)n1 [Compound 4] | 100 | 96.6 | 0 | 0 | 95.8 | 99.8 | 100 | 100 | 0 | 100 | 100 | 94.3 |  |  |  | 
5 | Fc1cccc(COc2ccc(Nc3ncnc4c3CN(CCN3CCOCC3)CC4)cc2Cl)c1 [Compound 6] | 0 | 0 | 0 | 0 | 99.9 | 0 | 0 | 0 | 0 | 0 | 0 | 0 | > 99 |  |  | 
6 | COc1cc(Nc2nccc(-c3sc(N)nc3-c3cccc(NC(=O)c4c(F)cccc4F)c3)n2)cc(OC)c1OC [Compound 7] | 72.9 | 100 | 94.9 | 92.8 | 100 | 100 | 76.3 | 100 | 0 | 100 | 100 | 65 |  |  |  | 
7 | C[C@@H](Oc1cc(-c2cnc3ccccn23)sc1C(N)=O)c1ccccc1Cl [Compound 8] | 0 | 0 | 0 | 97.5 | 0 | 0 | 0 | 0 | 0 | 0 | 0 | 0 |  |  |  | 
8 | c1ccc(COc2cccc(-c3ccnc4[nH]ccc34)c2)cc1 [Compound 9] | 0 | 0 | 0 | 95.1 | 0 | 0 | 0 | 0 | 0 | 0 | 0 | 0 |  | ≥ 90 |  | 
9 | Clc1ccc(Nc2ncc(-c3ccccc3)s2)cc1 [Compound 10] | 0 | 0 | 0 | 0 | 0 | 100 | 0 | 0 | 0 | 0 | 0 | 0 |  |  | > 99 | 
10 | Nc1ncc2c(-c3ccncc3)c[nH]c2n1 [Compound 11] | 0 | 0 | 0 | 79.4 | 0 | 0 | 99.9 | 66.2 | 0 | 0 | 0 | 0 |  |  |  | ≥ 99
